The target in data set [1] is T1, human glucagon receptor (GcgR) (Homo sapiens, UniProt P47871).
T1 construct: expressed in transfected cells; host or cells: HEK293 (membranes)
The experiment in a line: Radioligand competition binding (SPA), human GcgR membranes. An excerpt:
(§1) Radioligand competition binding assays are run to determine the equilibrium dissociation constant for exemplary compounds and comparator molecules.
(§2) Competition curves are plotted as the percent specific inhibition (y-axis) versus log concentration of compound (x-axis) and analyzed using a four parameter nonlinear regression fit with variable slope (ABase or Genedata).

Data set [2] concerns the target T2, human GIP receptor (GIPR) (Homo sapiens, UniProt P48546).
T2 construct: expressed in transfected cells; host or cells: HEK293 (membranes)
T2 sequence (P48546 22-466): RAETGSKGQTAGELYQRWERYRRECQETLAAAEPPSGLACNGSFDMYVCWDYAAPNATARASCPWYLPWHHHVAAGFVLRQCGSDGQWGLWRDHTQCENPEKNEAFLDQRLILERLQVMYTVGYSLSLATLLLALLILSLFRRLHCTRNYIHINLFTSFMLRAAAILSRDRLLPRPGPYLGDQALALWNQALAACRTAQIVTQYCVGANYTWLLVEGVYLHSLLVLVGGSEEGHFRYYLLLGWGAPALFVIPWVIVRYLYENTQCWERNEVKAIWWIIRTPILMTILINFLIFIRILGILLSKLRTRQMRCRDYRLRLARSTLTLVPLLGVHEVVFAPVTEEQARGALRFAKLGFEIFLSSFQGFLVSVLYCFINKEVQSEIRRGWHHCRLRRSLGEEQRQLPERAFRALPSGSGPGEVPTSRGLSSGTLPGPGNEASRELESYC
Kind of data set: Radioligand competition binding (SPA), human GIPR membranes.
Text: as §1, §2

Another data set has as its target T3, GLP-1 receptor (GLP-1R) (Homo sapiens, UniProt P43220).
T3 construct: expressed in transfected cells; host or cells: HEK293 (membranes)
The experiment in a line: Radioligand competition binding (SPA), human GLP-1R membranes.
Text: as §1, §2

A short description of data set [3]: Pharmacokinetics in male Sprague Dawley rats. The following applies: for CL/F / Tmax / half-life: male, Sprague-Dawley, rat, plasma, sc, 100 nmol/kg; for AUCINF_D_obs / Cmax/D: single subcutaneous 100 nMol/kg, male Sprague Dawley rats, n = 3.

Each structure is given as a SMILES string. *1 amine or outer side, *2 acyl side, *3 side chain or, on linkers, in order; H or OH if unused. Where a SMILES comes first, the peptide text is derived from it. Side-chain parts run from the residue outwards. [ ]: non-standard residue; d: D form. The star is where a group is joined. C20 diacid = O=C(O)CCCCCCCCCCCCCCCCCCC(=O)*; γGlu = O=C(O)[C@H](CCC(=O)[*:2])N[*:1]; αMeL = CC(C)C[C@](C)(N)C(=O)O; AEEA = NCCOCCOCC(=O)O; Aib = CC(C)(N)C(=O)O

T1 sequence (P47871 26-477): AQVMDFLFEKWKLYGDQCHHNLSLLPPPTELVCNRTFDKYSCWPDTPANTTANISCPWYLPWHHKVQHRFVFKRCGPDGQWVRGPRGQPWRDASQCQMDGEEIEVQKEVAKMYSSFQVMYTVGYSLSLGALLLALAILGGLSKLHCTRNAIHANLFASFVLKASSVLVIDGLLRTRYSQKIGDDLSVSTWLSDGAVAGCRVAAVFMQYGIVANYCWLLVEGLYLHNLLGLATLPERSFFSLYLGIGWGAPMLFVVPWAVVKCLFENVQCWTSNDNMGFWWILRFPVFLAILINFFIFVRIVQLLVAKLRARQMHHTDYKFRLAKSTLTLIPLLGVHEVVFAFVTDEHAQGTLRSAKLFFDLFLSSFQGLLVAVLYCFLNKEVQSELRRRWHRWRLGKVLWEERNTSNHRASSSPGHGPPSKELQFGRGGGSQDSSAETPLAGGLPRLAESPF
T3 sequence (P43220 24-463): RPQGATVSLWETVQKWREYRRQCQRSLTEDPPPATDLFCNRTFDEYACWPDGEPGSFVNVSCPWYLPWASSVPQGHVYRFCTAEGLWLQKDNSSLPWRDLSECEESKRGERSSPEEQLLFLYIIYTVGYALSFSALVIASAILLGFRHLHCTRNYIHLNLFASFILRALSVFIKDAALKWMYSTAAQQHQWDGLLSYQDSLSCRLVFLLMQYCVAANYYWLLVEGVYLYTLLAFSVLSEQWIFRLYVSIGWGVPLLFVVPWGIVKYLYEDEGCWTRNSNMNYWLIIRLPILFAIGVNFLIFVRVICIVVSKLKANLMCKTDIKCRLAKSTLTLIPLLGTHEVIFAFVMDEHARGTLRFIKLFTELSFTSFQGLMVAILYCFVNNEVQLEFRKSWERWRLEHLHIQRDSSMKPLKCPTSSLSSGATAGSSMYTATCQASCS

Take `CC[C@H](C)[C@H](NC(=O)[C@H](Cc1ccccc1)NC(=O)[C@H](C)NC(=O)[C@](C)(CCCCN)NC(=O)[C@H](CCC(N)=O)NC(=O)[C@H](C)NC(=O)[C@H](CCCCNC(=O)COCCOCCNC(=O)COCCOCCNC(=O)CC[C@H](NC(=O)CCCCCCCCCCCCCCCCCCC(=O)O)C(=O)O)NC(=O)[C@H](CCCCN)NC(=O)[C@H](CC(=O)O)NC(=O)[C@H](CC(C)C)NC(=O)[C@](C)(CC(C)C)NC(=O)[C@@H](NC(=O)[C@H](CO)NC(=O)[C@H](Cc1ccc(O)cc1)NC(=O)[C@H](CC(=O)O)NC(=O)[C@H](CO)NC(=O)[C@@H](NC(=O)[C@H](Cc1ccccc1)NC(=O)[C@@H](NC(=O)CNC(=O)[C@H](CCC(N)=O)NC(=O)C(C)(C)NC(=O)[C@@H](N)Cc1ccc(O)cc1)[C@@H](C)O)[C@@H](C)O)[C@@H](C)CC)C(=O)N[C@@H](CCC(=O)O)C(=O)N[C@@H](Cc1ccc(O)cc1)C(=O)N[C@@H](CC(C)C)C(=O)N[C@@H](CC(C)C)C(=O)N[C@@H](CCC(=O)O)C(=O)NCC(=O)NCC(=O)N1CCC[C@H]1C(=O)N[C@@H](CO)C(=O)N[C@@H](CO)C(=O)NCC(=O)N[C@@H](C)C(=O)N1CCC[C@H]1C(=O)N1CCC[C@H]1C(=O)N1CCC[C@H]1C(=O)N[C@@H](CO)C(N)=O` [Example 3]: the Ki in data set [1] was determined as 12 nM. Besides, the inhibition constant (Ki) in data set [2] worked out at 0.0446 nM. The molecule further returned a Ki at GLP-1 receptor (GLP-1R) of 6.06 nM. Moreover, in data set [3], the CL/F was 6.9 mL/h/kg, the Tmax was 16 h, the half-life is 1150 min and the AUCINF_D_obs worked out at 146 hr*kg*nmol/L/nmol. Also, the Cmax/D in data set [3] came to 2.5 kg*nmol/L/nmol.
As for `CC[C@H](C)[C@H](NC(=O)[C@H](Cc1ccccc1)NC(=O)[C@H](C)NC(=O)[C@H](CCC(N)=O)NC(=O)[C@H](C)NC(=O)[C@H](C)NC(=O)[C@H](CCCCNC(=O)COCCOCCNC(=O)COCCOCCNC(=O)CC[C@H](NC(=O)CCCCCCCCCCCCCCCCCCC(=O)O)C(=O)O)NC(=O)[C@H](CCCCN)NC(=O)[C@H](CC(=O)O)NC(=O)[C@H](CC(C)C)NC(=O)[C@](C)(CC(C)C)NC(=O)[C@@H](NC(=O)[C@H](CO)NC(=O)[C@H](Cc1ccc(O)cc1)NC(=O)[C@H](CC(=O)O)NC(=O)[C@H](CO)NC(=O)[C@@H](NC(=O)[C@H](Cc1ccccc1)NC(=O)[C@@H](NC(=O)CNC(=O)[C@H](CCC(N)=O)NC(=O)C(C)(C)NC(=O)[C@@H](N)Cc1ccc(O)cc1)[C@@H](C)O)[C@@H](C)O)[C@@H](C)CC)C(=O)N[C@@H](CCC(=O)O)C(=O)N[C@@H](Cc1ccc(O)cc1)C(=O)N[C@@H](CC(C)C)C(=O)N[C@@H](CC(C)C)C(=O)N[C@@H](CCC(=O)O)C(=O)NCC(=O)NCC(=O)N1CCC[C@H]1C(=O)N[C@@H](CO)C(=O)N[C@@H](CO)C(=O)NCC(=O)N[C@@H](C)C(=O)N1CCC[C@H]1C(=O)N1CCC[C@H]1C(=O)N1CCC[C@H]1C(=O)N[C@@H](CO)C(N)=O` [Example 6] (H-Y[Aib]QGTFTSDYSI[αMeL]LDKK([AEEA-AEEA-γGlu-C20 diacid])AAQAFIEYLLEGGPSSGAPPPS-NH2; N-terminus assumed), the Ki is 0.835 nM in data set [1], 0.249 nM in data set [2] and 36.7 nM on GLP-1 receptor (GLP-1R).
The like results for `CC[C@H](C)[C@H](NC(=O)[C@H](Cc1ccccc1)NC(=O)[C@H](C)NC(=O)[C@H](Cc1c[nH]cn1)NC(=O)[C@H](CCC(N)=O)NC(=O)[C@H](C)NC(=O)[C@H](CCCCNC(=O)COCCOCCNC(=O)COCCOCCNC(=O)CC[C@H](NC(=O)CCCCCCCCCCCCCCCCCCC(=O)O)C(=O)O)NC(=O)[C@H](CCCCN)NC(=O)[C@H](CC(=O)O)NC(=O)[C@H](CC(C)C)NC(=O)[C@](C)(CC(C)C)NC(=O)[C@@H](NC(=O)[C@H](CO)NC(=O)[C@H](Cc1ccc(O)cc1)NC(=O)[C@H](CC(=O)O)NC(=O)[C@H](CO)NC(=O)[C@@H](NC(=O)[C@H](Cc1ccccc1)NC(=O)[C@@H](NC(=O)CNC(=O)[C@H](CCC(N)=O)NC(=O)C(C)(C)NC(=O)[C@@H](N)Cc1ccc(O)cc1)[C@@H](C)O)[C@@H](C)O)[C@@H](C)CC)C(=O)N[C@@H](CCC(=O)O)C(=O)N[C@@H](Cc1ccc(O)cc1)C(=O)N[C@@H](CC(C)C)C(=O)N[C@@H](CC(C)C)C(=O)N[C@@H](CCC(=O)O)C(=O)NCC(=O)NCC(=O)N1CCC[C@H]1C(=O)N[C@@H](CO)C(=O)N[C@@H](CO)C(=O)NCC(=O)N[C@@H](C)C(=O)N1CCC[C@H]1C(=O)N1CCC[C@H]1C(=O)N1CCC[C@H]1C(=O)N[C@@H](CO)C(N)=O` [Example 7] (H-Y[Aib]QGTFTSDYSI[αMeL]LDKK([AEEA-AEEA-γGlu-C20 diacid])AQHAFIEYLLEGGPSSGAPPPS-NH2) were, in that order, 16.3 nM, 0.11 nM and 21.4 nM.
For `CC[C@H](C)[C@H](NC(=O)[C@H](Cc1ccccc1)NC(=O)[C@H](C)NC(=O)[C@H](Cc1c[nH]cn1)NC(=O)[C@H](CCC(N)=O)NC(=O)[C@H](C)NC(=O)[C@H](CCCCNC(=O)COCCOCCNC(=O)CC[C@H](NC(=O)CCCCCCCCCCCCCCCCCCC(=O)O)C(=O)O)NC(=O)[C@H](CCCCN)NC(=O)[C@H](CC(=O)O)NC(=O)[C@H](CC(C)C)NC(=O)[C@](C)(CC(C)C)NC(=O)[C@@H](NC(=O)[C@H](CO)NC(=O)[C@H](Cc1ccc(O)cc1)NC(=O)[C@H](CC(=O)O)NC(=O)[C@H](CO)NC(=O)[C@@H](NC(=O)[C@H](Cc1ccccc1)NC(=O)[C@@H](NC(=O)CNC(=O)[C@H](CCC(N)=O)NC(=O)C(C)(C)NC(=O)[C@@H](N)Cc1ccc(O)cc1)[C@@H](C)O)[C@@H](C)O)[C@@H](C)CC)C(=O)N[C@@H](CCC(=O)O)C(=O)N[C@@H](Cc1ccc(O)cc1)C(=O)N[C@@H](CC(C)C)C(=O)N[C@@H](CC(C)C)C(=O)N[C@@H](CCC(=O)O)C(=O)NCC(=O)NCC(=O)N1CCC[C@H]1C(=O)N[C@@H](CO)C(=O)N[C@@H](CO)C(=O)NCC(=O)N[C@@H](C)C(=O)N1CCC[C@H]1C(=O)N1CCC[C@H]1C(=O)N1CCC[C@H]1C(=O)N[C@@H](CO)C(N)=O` [Example 10] (H-Y[Aib]QGTFTSDYSI[αMeL]LDKK([AEEA-γGlu-C20 diacid])AQHAFIEYLLEGGPSSGAPPPS-NH2; N-terminus assumed), the affinity in data set [1] corresponds to a Ki of 7.37 nM. Further, the Ki in data set [2] was determined as 0.118 nM. On GLP-1 receptor (GLP-1R), the Ki was 12 nM. Also, in data set [3], the CL/F is 4.9 mL/h/kg, the Tmax was 24 h, the half-life is 1400 min and the AUCINF_D_obs turned out to be 203.5 hr*kg*nmol/L/nmol. This molecule yielded a Cmax/D in data set [3] of 3.1 kg*nmol/L/nmol.
With `CC[C@H](C)[C@H](NC(=O)[C@H](Cc1ccccc1)NC(=O)[C@H](C)NC(=O)C(C)(C)NC(=O)[C@H](CCC(N)=O)NC(=O)[C@H](C)NC(=O)[C@H](CCCCNC(=O)COCCOCCNC(=O)COCCOCCNC(=O)CC[C@H](NC(=O)CCCCCCCCCCCCCCCCCCC(=O)O)C(=O)O)NC(=O)[C@H](CCCCN)NC(=O)[C@H](CC(=O)O)NC(=O)[C@H](CC(C)C)NC(=O)[C@](C)(CC(C)C)NC(=O)[C@@H](NC(=O)[C@H](CO)NC(=O)[C@H](Cc1ccc(O)cc1)NC(=O)[C@H](CC(=O)O)NC(=O)[C@H](CO)NC(=O)[C@@H](NC(=O)[C@H](Cc1ccccc1)NC(=O)[C@@H](NC(=O)CNC(=O)[C@H](CCC(N)=O)NC(=O)C(C)(C)NC(=O)[C@@H](N)Cc1ccc(O)cc1)[C@@H](C)O)[C@@H](C)O)[C@@H](C)CC)C(=O)N[C@@H](CCC(=O)O)C(=O)N[C@@H](Cc1ccc(O)cc1)C(=O)N[C@@H](CC(C)C)C(=O)N[C@@H](CC(C)C)C(=O)N[C@@H](CCC(=O)O)C(=O)NCC(=O)NCC(=O)N1CCC[C@H]1C(=O)N[C@@H](CO)C(=O)N[C@@H](CO)C(=O)NCC(=O)N[C@@H](C)C(=O)N1CCC[C@H]1C(=O)N1CCC[C@H]1C(=O)N1CCC[C@H]1C(=O)N[C@@H](CO)C(N)=O` [Example 11], the Ki in data set [1] is 10.8 nM. Also, in data set [2], the Ki was determined as 0.089 nM. This molecule returned a Ki on GLP-1 receptor (GLP-1R) of 9.97 nM. For the same molecule, in data set [3], the CL/F is 4.7 mL/h/kg, the time of peak concentration (Tmax) was determined as 20 h, the half-life was 1460 min and the AUCINF_D_obs was 215.1 hr*kg*nmol/L/nmol. The Cmax/D in data set [3] amounted to 3.7 kg*nmol/L/nmol.
As to `CC[C@H](C)[C@H](NC(=O)[C@H](Cc1ccccc1)NC(=O)[C@H](C)NC(=O)C(C)(C)NC(=O)[C@H](CCC(N)=O)NC(=O)[C@H](C)NC(=O)[C@H](CCCCNC(=O)COCCOCCNC(=O)CC[C@H](NC(=O)CCCCCCCCCCCCCCCCCCC(=O)O)C(=O)O)NC(=O)[C@H](CCCCN)NC(=O)[C@H](CC(=O)O)NC(=O)[C@H](CC(C)C)NC(=O)[C@](C)(CC(C)C)NC(=O)[C@@H](NC(=O)[C@H](CO)NC(=O)[C@H](Cc1ccc(O)cc1)NC(=O)[C@H](CC(=O)O)NC(=O)[C@H](CO)NC(=O)[C@@H](NC(=O)[C@H](Cc1ccccc1)NC(=O)[C@@H](NC(=O)CNC(=O)[C@H](CCC(N)=O)NC(=O)C(C)(C)NC(=O)[C@@H](N)Cc1ccc(O)cc1)[C@@H](C)O)[C@@H](C)O)[C@@H](C)CC)C(=O)N[C@@H](CCC(=O)O)C(=O)N[C@@H](Cc1ccc(O)cc1)C(=O)N[C@@H](CC(C)C)C(=O)N[C@@H](CC(C)C)C(=O)N[C@@H](CCC(=O)O)C(=O)NCC(=O)NCC(=O)N1CCC[C@H]1C(=O)N[C@@H](CO)C(=O)N[C@@H](CO)C(=O)NCC(=O)N[C@@H](C)C(=O)N1CCC[C@H]1C(=O)N1CCC[C@H]1C(=O)N1CCC[C@H]1C(=O)N[C@@H](CO)C(N)=O` [Example 12], the affinity in data set [1] corresponds to a Ki of 5.6 nM. Moreover, in data set [3], the CL/F was 5.1 mL/h/kg, the Tmax was 24 h, the half-life is 1590 min and the AUCINF_D_obs came to 197.1 hr*kg*nmol/L/nmol. In addition, in data set [3], the Cmax/D turned out to be 3.7 kg*nmol/L/nmol.
